Converted amounts (≈) assume the structure as drawn. One block for each compound: values may come before it.
Columns and labels:
[1] = result from metolazone usage; cited from earlier work
[2] = Particle size distribution by screen analysis; assay type: physicochemical; conditions: for particle size d16%: 16 weight percent; for particle size d50%: 50 weight percent; for particle size d84%: 84 weight percent
Method: where d is the particle diameter in μm at the indicated percentage by weight and σg is the geometric standard deviation.
The particle size distributions of drugs and excipients were determined by a screen analysis technique. A 5 gm sample of each test material was placed on the top screen of a set of six US standard screens of an Allen Bradley Sonic Sifter. The screens were pulsed for 15 minutes. The following screens were used: 80 mesh (180 μm), 100 mesh (150 μm), 140 mesh (106 μm), 200 mesh (75 μm), 270 mesh (53 μm) and 400 mesh (38 μm). The weights of the fractions retained on the screens were obtained. Particle sizes (d) at specific weight percents (16, 50, and 84) were obtained from a log probability plot of the data as described by Edmundson (Advances in Pharmaceutical Sciences, Bean, H.S. et al. Editors, Academic, London, England p. 95, 1967). These particle sizes are described as d16, d50, and d84.
The slopes of the lines from the plots were calculated to give the geometric standard deviation (σg).

Water solubility = assay type: physicochemical; conditions: for solubility: water
[3] = 0.01N hydrochloric acid; cited from earlier work
[4] = listed as fine-milled metolazone
[5] = listed as monocrystalline metolazone

particle size d16% [2, 4]: 155 μm
particle size d16% ([2]; listed as milled metolazone): 94 μm
particle size d16% [2, 5]: 460 μm
particle size d50% [2, 4]: 86 μm
particle size d50% ([2]; listed as milled metolazone): 56 μm
particle size d50% [2, 5]: 190 μm
particle size d84% [2, 4]: 48 μm
particle size d84% ([2]; listed as milled metolazone): 34 μm
particle size d84% [2, 5]: 83 μm
water solubility (Water solubility; 25° C.): approximately 60.3 mcg/ml
solubility (Water solubility; 25° C.): ~60 µg/mL (≈ 164 µM)
solubility (Water solubility; 36° C.): ~100 µg/mL (≈ 273 µM)
Compound: Cc1ccccc1N1C(=O)c2cc(S(N)(=O)=O)c(Cl)cc2NC1C (centres unmarked) [metolazone, 2-methyl-3-o-tolyl-6-sulfamyl-7-chloro-1,2,3,4-tetrahydro-4-quinazolinone]
side effects [1]: hypokalemia

Compound: Cc1ccccc1N1C(=O)c2cc(S(N)(=O)=O)c(Cl)cc2NC1C (centres unmarked) [amorphous and metastable metolazone]
dissolution rate relative to the stable modification (mp. 267°-270° C.) [3]: about 8 times faster

particle size d16% [2]: 76 μm
particle size d50% [2]: 41 μm
particle size d84% [2]: 17 μm
Compound: Nc1nc(N)c2nc(-c3ccccc3)c(N)nc2n1 [triamterene]
